Target: T1, SMYD3 (Homo sapiens, UniProt Q9H7B4)
T1 sequence (Q9H7B4 1-428): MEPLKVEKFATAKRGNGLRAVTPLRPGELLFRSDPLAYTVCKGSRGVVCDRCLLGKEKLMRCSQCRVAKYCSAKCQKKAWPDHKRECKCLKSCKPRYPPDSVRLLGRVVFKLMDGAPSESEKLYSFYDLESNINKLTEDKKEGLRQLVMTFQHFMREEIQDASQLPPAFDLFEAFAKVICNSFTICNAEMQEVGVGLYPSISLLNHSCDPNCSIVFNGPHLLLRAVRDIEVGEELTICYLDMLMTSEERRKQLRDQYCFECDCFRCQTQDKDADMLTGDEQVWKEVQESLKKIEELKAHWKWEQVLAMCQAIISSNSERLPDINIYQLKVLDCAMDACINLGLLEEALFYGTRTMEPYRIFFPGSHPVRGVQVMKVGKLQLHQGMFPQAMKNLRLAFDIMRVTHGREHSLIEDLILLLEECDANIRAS
Assay: SMYD3 biochemical assay (MTase-Glo, MAP3K2 peptide substrate)
Conditions: Table 3; MTase assay, MAP3K2 peptide substrate; read-out: IC50
Procedure, shortened: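 Methylation of MAP3K2 peptide (10 µM final) with SAM (1.0 µM final) by SMYD3, 30 min at room temperature. SAH formed was enzymatically converted to ATP and detected as luminescence with MTase-Glo reagents; IC50 by non-linear regression.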

IC50 [nM]	SMILES
1700	CCCOC(=O)N1CCN(C(=O)c2ccc3c(Cl)c4c(nc3c2)CC(c2ncccc2C)CC4)[C@@H](C)C1 (stereo partly drawn) [A101, Propyl (3S)-4-(9-chloro-6-(3-methylpyridin-2-yl)-5,6,7,8-tetrahydroacridine-3-carbonyl)-3-methylpiperazine-1-carboxylate]
230	CCCOC(=O)N1CCN(C(=O)c2ccc3c(Cl)c4c(nc3c2)CC(CN)CC4)[C@H](C)C1 (stereo partly drawn) [A102, Propyl (3R)-4-(6-(aminomethyl)-9-chloro-5,6,7,8-tetrahydroacridine-3-carbonyl)-3-methylpiperazine-1-carboxylate]
390	CCCOC(=O)N1CCN(C(=O)c2ccc3c(Cl)c4c(nc3c2)CC(Cc2ccccn2)CC4)CC1 (stereo not shown) [A103, Propyl 4-(9-chloro-6-(pyridin-2-ylmethyl)-5,6,7,8-tetrahydroacridine-3-carbonyl)piperazine-1-carboxylate]
83	CCCOC(=O)N1CCN(C(=O)c2ccc3c(Cl)c4c(nc3c2)CC(c2ccnc(C)c2)CC4)CC1 (stereo not shown) [A104, Propyl 4-(9-chloro-6-(2-methylpyridin-4-yl)-5,6,7,8-tetrahydroacridine-3-carbonyl)piperazine-1-carboxylate]
90	CCCOC(=O)N1CCN(C(=O)c2ccc3c(Cl)c4c(nc3c2)CC(CCN(C)C)CC4)CC1 (stereo not shown) [A105, Propyl 4-(9-chloro-6-(2-(dimethylamino)ethyl)-5,6,7,8-tetrahydroacridine-3-carbonyl)piperazine-1-carboxylate]
41	CCCOC(=O)N1CCN(C(=O)c2ccc3c(Cl)c4c(nc3c2)CC(c2ccc(F)cn2)CC4)[C@H](C)C1 (stereo partly drawn) [A106, Propyl (3R)-4-(9-chloro-6-(5-fluoropyridin-2-yl)-5,6,7,8-tetrahydroacridine-3-carbonyl)-3-methylpiperazine-1-carboxylate]
380	CCCOC(=O)N1CCN(C(=O)c2ccc3c(Cl)c4c(nc3c2)CC(c2ncccc2C)CC4)C[C@@H]1C (stereo partly drawn) [A107, Propyl (2S)-4-(9-chloro-6-(3-methylpyridin-2-yl)-5,6,7,8-tetrahydroacridine-3-carbonyl)-2-methylpiperazine-1-carboxylate]
480	CCCOC(=O)N1CCN(C(=O)c2ccc3c(Cl)c4c(nc3c2)CC(c2ncccc2C)CC4)C[C@H]1C (stereo partly drawn) [A108, Propyl (2R)-4-(9-chloro-6-(3-methylpyridin-2-yl)-5,6,7,8-tetrahydroacridine-3-carbonyl)-2-methylpiperazine-1-carboxylate]
720	CCCOC(=O)N1CCN(C(=O)c2ccc3c(Cl)c4c(nc3c2)CC(c2ncccc2C)CC4)[C@H](C)C1 (stereo partly drawn) [A109, Propyl (3R)-4-(9-chloro-6-(3-methylpyridin-2-yl)-5,6,7,8-tetrahydroacridine-3-carbonyl)-3-methylpiperazine-1-carboxylate]
840	CCCOC(=O)N1CCN(C(=O)c2ccc3c(Cl)c4c(nc3c2)CCCC4)CC1COC (stereo not shown) [A110, Propyl 4-(9-chloro-5,6,7,8-tetrahydroacridine-3-carbonyl)-2-(methoxymethyl)piperazine-1-carboxylate]
47	CCCOC(=O)N1CCN(C(=O)c2ccc3c(Cl)c4c(nc3c2)CC(CCN)CC4)[C@H](C)C1 (stereo partly drawn) [A111, Propyl (3R)-4-(6-(2-aminoethyl)-9-chloro-5,6,7,8-tetrahydroacridine-3-carbonyl)-3-methylpiperazine-1-carboxylate]
140	CCCOC(=O)N1CCN(C(=O)c2ccc3c(Cl)c4c(nc3c2)CC(c2cnccn2)CC4)CC1 (stereo not shown) [A112, Propyl 4-(9-chloro-6-(pyrazin-2-yl)-5,6,7,8-tetrahydroacridine-3-carbonyl)piperazine-1-carboxylate]
340	CCCOC(=O)N1CCN(C(=O)c2ccc3c(Cl)c4c(nc3c2)CC(c2ncccc2F)CC4)[C@H](C)C1 (stereo partly drawn) [A113, Propyl (3R)-4-(9-chloro-6-(3-fluoropyridin-2-yl)-5,6,7,8-tetrahydroacridine-3-carbonyl)-3-methylpiperazine-1-carboxylate]
110	CCCOC(=O)N1CCN(C(=O)c2ccc3c(Cl)c4c(nc3c2)CC(c2ccnc(C)c2)CC4)[C@H](C)C1 (stereo partly drawn) [A114, Propyl (3R)-4-(9-chloro-6-(2-methylpyridin-4-yl)-5,6,7,8-tetrahydroacridine-3-carbonyl)-3-methylpiperazine-. 1-carboxylate]
270	CCCOC(=O)N1CCN(C(=O)c2ccc3c(Cl)c4c(nc3c2)CC(c2ncccc2F)CC4)C[C@H]1C (stereo partly drawn) [A115, Propyl (2R)-4-(9-chloro-6-(3-fluoropyridin-2-yl)-5,6,7,8-tetrahydroacridine-3-carbonyl)-2-methylpiperazine-1-carboxylate]
210	CCCOC(=O)N1CCN(C(=O)c2ccc3c(Cl)c4c(nc3c2)CCCC4)C(C#N)C1 (stereo not shown) [A116, Propyl 4-(9-chloro-5,6,7,8-tetrahydroacridine-3-carbonyl)-3-cyanopiperazine-1-carboxylate]
120	CCCOC(=O)N1CCN(C(=O)c2ccc3c(Cl)c4c(nc3c2)CCCC4)CC1C#N (stereo not shown) [A117, Propyl 4-(9-chloro-5,6,7,8-tetrahydroacridine-3-carbonyl)-2-cyanopiperazine-1-carboxylate]
180	CCCOC(=O)N1CCN(C(=O)c2ccc3c(Cl)c4c(nc3c2)C(C)CCC4)CC1 (stereo not shown) [A118, Propyl 4-(9-chloro-5-methyl-5,6,7,8-tetrahydroacridine-3-carbonyl)piperazine-1-carboxylate]

The next lines start with the compound.

SMILES	IC50 [nM]
CCCOC(=O)N1CCN(C(=O)c2ccc3c(Cl)c4c(nc3c2)CC(c2ccccn2)CC4)[C@H](C)C1 (stereo partly drawn) [A087, Propyl (3R)-4-(9-chloro-6-(pyridin-2-yl)-5,6,7,8-tetrahydroacridine-3-carbonyl)-3-methylpiperazine-1-carboxylate]	56
CCCOC(=O)N1CCN(C(=O)c2ccc3c(Cl)c4c(nc3c2)CCC(Cc2noc(C)n2)C4)CC1 (stereo not shown) [A089, Propyl 4-(9-chloro-7-((5-methyl-1,2,4-oxadiazol-3-yl)methyl)-5,6,7,8-tetrahydroacridine-3-carbonyl)piperazine-1-carboxylate]	350
CCCOC(=O)N1CCN(C(=O)c2ccc3c(Cl)c4c(nc3c2)CC(CNC(=N)N)CC4)[C@@H](C)C1 (stereo partly drawn) [A090, Propyl (3S)-4-(9-chloro-6-(guanidinomethyl)-5,6,7,8-tetrahydroacridine-3-carbonyl)-3-methylpiperazine-1-carboxylate]	350
CCCOC(=O)N1CCN(C(=O)c2ccc3c(Cl)c4c(nc3c2)CC(CCNC(=N)N)CC4)[C@@H](C)C1 (stereo partly drawn) [A091, Propyl (3S)-4-(9-chloro-6-(2-guanidinoethyl)-5,6,7,8-tetrahydroacridine-3-carbonyl)-3-methylpiperazine-1-carboxylate]	140
CCCOC(=O)N1CCN(C(=O)c2ccc3c(Cl)c4c(nc3c2)CC(c2ccncc2)CC4)[C@@H](C)C1 (stereo partly drawn) [A092, Propyl (3S)-4-(9-chloro-6-(pyridin-4-yl)-5,6,7,8-tetrahydroacridine-3-carbonyl)-3-methylpiperazine-1-carboxylate]	110
CCCOC(=O)N1CCN(C(=O)c2ccc3c(Cl)c4c(nc3c2)CC(c2ccncc2)CC4)[C@H](C)C1 (stereo partly drawn) [A093, Propyl (3R)-4-(9-chloro-6-(pyridin-4-yl)-5,6,7,8-tetrahydroacridine-3-carbonyl)-3-methylpiperazine-1-carboxylate]	100
CCCOC(=O)N1CCN(C(=O)c2ccc3c(Cl)c4c(nc3c2)CC(c2ccc(F)cn2)CC4)CC1 (stereo not shown) [A094, Propyl 4-(9-chloro-6-(5-fluoropyridin-2-yl)-5,6,7,8-tetrahydroacridine-3-carbonyl)piperazine-1-carboxylate]	140
CCCOC(=O)N1CCN(C(=O)c2ccc3c(Cl)c4c(nc3c2)CC(c2ccc(F)cn2)CC4)[C@@H](C)C1 (stereo partly drawn) [A095, Propyl (3S)-4-(9-chloro-6-(5-fluoropyridin-2-yl)-5,6,7,8-tetrahydroacridine-3-carbonyl)-3-methylpiperazine-1-carboxylate]	110
CCCOC(=O)N1CCN(C(=O)c2ccc3c(Cl)c4c(nc3c2)CC(c2ncccc2C)CC4)CC1 (stereo not shown) [A096, Propyl 4-(9-chloro-6-(3-methylpyridin-2-yl)-5,6,7,8-tetrahydroacridine-3-carbonyl)piperazine-1-carboxylate]	1200
CCCOC(=O)N1CCN(C(=O)c2ccc3c(Cl)c4c(nc3c2)CC(c2ccc(F)cn2)CC4)C[C@@H]1C (stereo partly drawn) [A097, Propyl (2S)-4-(9-chloro-6-(5-fluoropyridin-2-yl)-5,6,7,8-tetrahydroacridine-3-carbonyl)-2-methylpiperazine-1-carboxylate]	170
CCCOC(=O)N1CCN(C(=O)c2ccc3c(Cl)c4c(nc3c2)CC(c2ccc(F)cn2)CC4)C[C@H]1C (stereo partly drawn) [A098, Propyl (2R)-4-(9-chloro-6-(5-fluoropyridin-2-yl)-5,6,7,8-tetrahydroacridine-3-carbonyl)-2-methylpiperazine-1-carboxylate]	150
CCCOC(=O)N1CCN(C(=O)c2ccc3c(Cl)c4c(nc3c2)CC(c2ncccc2F)CC4)CC1 (stereo not shown) [A099, Propyl 4-(9-chloro-6-(3-fluoropyridin-2-yl)-5,6,7,8-tetrahydroacridine-3-carbonyl)piperazine-1-carboxylate]	590
CCCOC(=O)N1CCN(C(=O)c2ccc3c(Cl)c4c(nc3c2)CC(c2ncccc2F)CC4)[C@@H](C)C1 (stereo partly drawn) [A100, Propyl (3S)-4-(9-chloro-6-(3-fluoropyridin-2-yl)-5,6,7,8-tetrahydroacridine-3-carbonyl)-3-methylpiperazine-1-carboxylate]	570

Reference: US20190071416A1, “COMPOUNDS FOR TREATMENT OF CANCER AND EPIGENETICS” (Agency For Science, Technology and Research, priority 2015, published 2019)
